In PMC12254338 (Scientific Reports, 2025):
No end group written: not given here.

Target: T1, Vps4p^∆N (lacks the MIT domain and linker; residues 101–437) (Saccharomyces cerevisiae, UniProt P52917)
T1 sequence (P52917 101-437): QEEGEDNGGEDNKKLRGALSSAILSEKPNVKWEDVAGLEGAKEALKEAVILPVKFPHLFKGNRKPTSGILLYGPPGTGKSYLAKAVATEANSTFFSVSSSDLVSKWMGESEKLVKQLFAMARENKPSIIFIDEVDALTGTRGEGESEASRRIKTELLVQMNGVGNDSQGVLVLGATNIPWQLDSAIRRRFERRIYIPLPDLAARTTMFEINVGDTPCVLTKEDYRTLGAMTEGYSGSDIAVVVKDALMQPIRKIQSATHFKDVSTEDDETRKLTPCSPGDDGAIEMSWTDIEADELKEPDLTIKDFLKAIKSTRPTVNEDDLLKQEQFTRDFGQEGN
T1 sequence (Q06263 280-330 partner limits assumed): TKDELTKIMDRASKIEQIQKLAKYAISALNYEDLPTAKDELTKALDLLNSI
Assay: Fluorescence polarization peptide binding assay to Vps4p^∆N
Design: species or system S. cerevisiae
Details: ratio of affinities

## EKEKEKEK-NH2 [(EK)4]
  Fold tighter binding than (KE)4: 6 fold
